This test has as its target T1, CFTR (Homo sapiens, UniProt P13569).
T1 construct: results in the phosphorylation and opening of CFTR anion channels
In words: T84 assay (FLIPR membrane potential, forskolin/IBMX-stimulated CFTR channel activity). It is filed as cell-based. Particulars: average of at least 2 runs unless annotated n = 1. On the procedure: (§1) For example, Human colonic T84 cells can be acquired from the European Collection of Cell Cultures (ECACC) and grown in standard culture conditions as described by the supplier. On the day before assay 25,000 T84 cells per well are plated into standard black walled, clear bottom 384-well assay plates in standard growth medium consisting of DMEM:F12 with 10% FBS and incubated overnight. On the day of the assay the plates are washed using a standard assay buffer (HBSS with 10 mM Hepes) and incubated for 15 minutes in serum free cell culture medium before the addition of a commercially available membrane potential sensitive fluorescent dye (FLIPR Red membrane potential dye, Molecular Devices Corporation). T84 cells are incubated with the FLIPR Red membrane potential dye for 45 minutes in the presence and absence of test compound before being transferred to a commercially available fluorescence imaging plate reader (FLIPR384, Molecular Devices Corporation). Fluorescence levels are monitored continuously every second for 150 seconds; after an initial 10 second baseline, CFTR channel activity is stimulated through the addition of 10 μM forskolin in the presence of 100 μM of the phosphodiesterase inhibitor iso-butyl-methylxanthine (IBMX). Addition of the forskolin leads to the activation of intracellular adenylyl cylase 1, elevating cAMP levels and results in the phosphorylation and opening of CFTR anion channels. CFTR channel opening causes chloride ion efflux and subsequent depolarization of the cells, which is measured by an increase in fluorescence. CFTR inhibitor compounds prevent cell depolarization and the associated increase in fluorescence.
as §1, with “Human colonic” for “For example, Human colonic”, “T84 cells are acquired from” for “T84 cells can be acquired from”, “(ECACC) and are grown in” for “(ECACC) and grown in”
Unless otherwise indicated, the IC50 values are reported as an average of at least 2 runs. Where only 1 run is used, this is indicated by the annotation “n=1.”
T1 sequence (P13569 whole entry): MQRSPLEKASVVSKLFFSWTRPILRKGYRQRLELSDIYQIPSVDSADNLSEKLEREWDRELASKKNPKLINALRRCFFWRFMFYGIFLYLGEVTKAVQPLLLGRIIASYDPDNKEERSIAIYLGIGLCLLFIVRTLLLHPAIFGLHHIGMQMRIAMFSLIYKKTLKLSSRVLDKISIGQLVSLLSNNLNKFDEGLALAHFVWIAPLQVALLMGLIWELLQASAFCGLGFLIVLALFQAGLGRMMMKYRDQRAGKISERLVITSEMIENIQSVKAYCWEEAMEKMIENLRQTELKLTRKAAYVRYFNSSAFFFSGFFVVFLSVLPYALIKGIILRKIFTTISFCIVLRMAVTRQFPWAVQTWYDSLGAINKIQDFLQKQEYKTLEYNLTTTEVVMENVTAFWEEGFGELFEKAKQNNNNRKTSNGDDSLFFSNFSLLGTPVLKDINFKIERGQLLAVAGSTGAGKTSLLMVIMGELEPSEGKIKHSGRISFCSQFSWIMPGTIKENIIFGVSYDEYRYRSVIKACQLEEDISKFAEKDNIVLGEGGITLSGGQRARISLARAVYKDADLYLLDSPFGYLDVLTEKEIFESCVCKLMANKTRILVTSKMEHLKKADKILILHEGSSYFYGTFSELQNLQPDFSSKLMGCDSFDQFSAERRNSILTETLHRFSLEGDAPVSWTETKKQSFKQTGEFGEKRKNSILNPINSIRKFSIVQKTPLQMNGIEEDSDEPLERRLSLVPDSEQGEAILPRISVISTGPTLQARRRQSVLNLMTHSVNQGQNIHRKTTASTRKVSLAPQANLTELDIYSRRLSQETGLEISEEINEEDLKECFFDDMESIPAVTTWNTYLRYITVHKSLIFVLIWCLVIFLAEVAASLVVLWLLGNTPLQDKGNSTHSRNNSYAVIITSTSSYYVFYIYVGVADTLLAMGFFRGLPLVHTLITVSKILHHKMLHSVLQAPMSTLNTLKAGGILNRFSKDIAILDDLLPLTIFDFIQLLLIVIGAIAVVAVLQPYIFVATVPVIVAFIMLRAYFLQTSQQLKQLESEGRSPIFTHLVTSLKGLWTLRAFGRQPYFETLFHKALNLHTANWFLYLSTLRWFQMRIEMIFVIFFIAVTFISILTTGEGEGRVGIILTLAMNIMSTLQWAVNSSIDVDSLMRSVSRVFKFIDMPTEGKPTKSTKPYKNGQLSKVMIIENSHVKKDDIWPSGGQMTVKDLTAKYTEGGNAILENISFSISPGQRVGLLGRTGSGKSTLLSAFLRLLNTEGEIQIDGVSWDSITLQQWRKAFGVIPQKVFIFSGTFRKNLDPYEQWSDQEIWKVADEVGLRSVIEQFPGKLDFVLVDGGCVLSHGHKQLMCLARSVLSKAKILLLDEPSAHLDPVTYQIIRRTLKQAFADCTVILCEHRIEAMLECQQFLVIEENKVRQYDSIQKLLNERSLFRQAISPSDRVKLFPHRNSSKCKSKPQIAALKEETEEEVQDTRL
Regarding `Oc1c(Br)cc(-c2ccc(OCc3ccc(F)cc3Cl)nn2)cc1Br` [Compound 89, 2,6-dibromo-4-(6-(2-chloro-4-fluorobenzyloxy)pyridazin-3-yl)phenol], the midpoint of inhibition, the IC50, lay at 6.01 µM.

`CC(Oc1ccc(-c2cc(Br)c(O)c(Br)c2)nn1)c1cccc(Cl)c1` (stereo not shown) [Compound 90, 2,6-dibromo-4-(6-(1-(3-chlorophenyl)ethoxy)pyridazin-3-yl)phenol] had an IC50 of 17.6 µM. For the molecule `Oc1c(Br)cc(-c2ccc(OCc3cccc(Br)c3)nn2)cc1Br` [Compound 91, 2,6-dibromo-4-(6-(3-bromobenzyloxy)pyridazin-3-yl)phenol], the IC50 is 26.1 µM. `Oc1c(Br)cc(-c2ccc(OCCc3ccc(Cl)cc3)nn2)cc1Br` [Compound 92, 2,6-dibromo-4-(6-(4-chlorophenethoxy)pyridazin-3-yl)phenol] came in with an IC50 of 3.38 µM. In the case of `Oc1c(Br)cc(-c2ccc(OCCc3ccc(Br)cc3)nn2)cc1Br` [Compound 93, 2,6-dibromo-4-(6-(4-bromophenethoxy)pyridazin-3-yl)phenol] it was 4.2 µM; in that of `Oc1c(Br)cc(-c2ccc(OCCc3cccc(Cl)c3Cl)nn2)cc1Br` [Compound 94, 2,6-dibromo-4-(6-(2,3-dichlorophenethoxy)pyridazin-3-yl)phenol], 8.03 µM. In the case of `Oc1c(Br)cc(-c2ccc(OCc3cccc4ccccc34)nn2)cc1Br` [Compound 95, 2,6-dibromo-4-(6-(naphthalen-1-ylmethoxy)pyridazin-3-yl)phenol] it was 7.9 µM; in that of `Oc1c(Cl)cc(-c2ccc(OCc3ccc(F)cc3Cl)nn2)cc1Cl` [Compound 96, 2,6-dichloro-4-(6-(2-chloro-4-fluorobenzyloxy)pyridazin-3-yl)phenol], 3.74 µM; in that of `Oc1c(Br)cc(-c2ccc(OCc3cccc(Cl)c3Cl)nn2)cc1Br` [Compound 99, 2,6-dibromo-4-(6-(2,3-dichlorobenzyloxy)pyridazin-3-yl)phenol], 12.4 µM. The result for `Oc1c(Br)cc(-c2ccc(OCCc3cccc4ccccc34)nn2)cc1Br` [Compound 100, 2,6-dibromo-4-(6-(2-(naphthalen-1-yl)ethoxy)pyridazin-3-yl)phenol] reads 25.3 µM; that for `CC(C)(C)OC(=O)N1CCC(COc2ccc(-c3cc(Cl)c(O)c(Cl)c3)nn2)(c2ccccc2)CC1` [Compound 101, tert-butyl 4-((6-(3,5-dichloro-4-hydroxyphenyl)pyridazin-3-yloxy)methyl)-4-phenylpiperidine-1-carboxylate], 12.7 µM; that for `Oc1c(Cl)cc(-c2ccc(OCCc3cccs3)nn2)cc1Cl` [Compound 102, 2,6-dichloro-4-(6-(2-(thiophen-2-yl)ethoxy)pyridazin-3-yl)phenol], 6.84 µM. In turn, `Oc1c(Cl)cc(-c2ccc(OCCc3ccccc3)nn2)cc1Cl` [Compound 103, 2,6-dichloro-4-(6-phenethoxypyridazin-3-yl)phenol] displayed an IC50 of 5.75 µM. Molecule `Oc1c(Cl)cc(-c2ccc(OCCc3cccc(Cl)c3)nn2)cc1Cl` [Compound 104, 2,6-dichloro-4-(6-(3-chlorophenethoxy)pyridazin-3-yl)phenol] displayed an IC50 of 10.4 µM. In the case of `Oc1c(Cl)cc(-c2ccc(OCc3cnc(Br)s3)nn2)cc1Cl` [Compound 105, 4-(6-((2-bromothiazol-5-yl)methoxy)pyridazin-3-yl)-2,6-dichlorophenol] it was 20.8 µM; in that of `Oc1c(Cl)cc(-c2ccc(OCc3ccsc3)nn2)cc1Cl` [Compound 106, 2,6-dichloro-4-(6-(thiophen-3-ylmethoxy)pyridazin-3-yl)phenol], 19.5 µM; in that of `CN(C)CCCOc1ccc(CN2CCC(COc3ccc(-c4cc(Cl)c(O)c(Cl)c4)nn3)(c3ccccc3)CC2)cc1` [Compound 107, 2,6-dichloro-4-(6-((1-(4-(3-(dimethylamino)propoxy)benzyl)-4-phenylpiperidin-4-yl)methoxy)pyridazin-3-yl)phenol], 2.85 µM.

`Oc1c(Cl)cc(-c2ccc(OCC3(c4ccccc4)CCN(Cc4ccc(Cl)nc4)CC3)nn2)cc1Cl` [Compound 108, 2,6-dichloro-4-(6-((1-((6-chloropyridin-3-yl)methyl)-4-phenylpiperidin-4-yl)methoxy)pyridazin-3-yl)phenol] returned an IC50 of 0.63 µM. In the case of `OCCN(Cc1cccnc1)c1ccc(-c2cc(Cl)c(O)c(Cl)c2)nn1` [Compound 109, 2,6-dichloro-4-(6-((2-hydroxyethyl)(pyridin-3-ylmethyl)amino)pyridazin-3-yl)phenol] it was 4.72 µM; in that of `Oc1c(Cl)cc(-c2ccc(NCc3ccccc3)nn2)cc1Cl` [Compound 110, 4-(6-(benzylamino)pyridazin-3-yl)-2,6-dichlorophenol], 0.73 µM. The result for `OCCN(Cc1ccc(F)cc1)c1ccc(-c2cc(Cl)c(O)c(Cl)c2)nn1` [Compound 111, 2,6-dichloro-4-(6-((4-fluorobenzyl)(2-hydroxyethyl)amino)pyridazin-3-yl)phenol] reads 0.37 µM; that for `OCCN(Cc1ccccc1Cl)c1ccc(-c2cc(Cl)c(O)c(Cl)c2)nn1` [Compound 112, 2,6-dichloro-4-(6-((2-chlorobenzyl)(2-hydroxyethyl)amino)pyridazin-3-yl)phenol], 1.53 µM; that for `OCCN(Cc1ccccn1)c1ccc(-c2cc(Cl)c(O)c(Cl)c2)nn1` [Compound 113, 2,6-dichloro-4-(6-((2-hydroxyethyl)(pyridin-2-ylmethyl)amino)pyridazin-3-yl)phenol], 17.6 µM. Consider `COCCN(Cc1ccccc1)c1ccc(-c2cc(Cl)c(O)c(Cl)c2)nn1` [Compound 114, 4-(6-(benzyl(2-methoxyethyl)amino)pyridazin-3-yl)-2,6-dichlorophenol], for which the half-inhibitory concentration (IC50) is 0.13 µM. For the molecule `OCCN(Cc1ccncc1)c1ccc(-c2cc(Cl)c(O)c(Cl)c2)nn1` [Compound 116, 2,6-dichloro-4-(6-((2-hydroxyethyl)(pyridin-4-ylmethyl)amino)pyridazin-3-yl)phenol], the IC50 is 16.5 µM.

`Oc1c(Cl)cc(-c2ccc(NCc3cc(F)ccc3F)nn2)cc1Cl` [Compound 117, 2,6-dichloro-4-(6-(2,5-difluorobenzylamino)pyridazin-3-yl)phenol] gave an IC50 of 1.36 µM.

In the case of `CN(Cc1ccccc1)c1ccc(-c2cc(Cl)c(O)c(Cl)c2)nn1` [Compound 118, 4-(6-(benzyl(methyl)amino)pyridazin-3-yl)-2,6-dichlorophenol], the IC50 was 0.06 µM. In the case of `Oc1c(Cl)cc(-c2ccc(OCc3ccccc3)nn2)cc1Cl` [Compound 119, 4-(6-(benzyloxy)pyridazin-3-yl)-2,6-dichlorophenol] it was 2.76 µM; in that of `CN(Cc1cccc(Oc2ccccn2)c1)c1ccc(-c2cc(Cl)c(O)c(Cl)c2)nn1` [Compound 120, 2,6-dichloro-4-(6-(methyl(3-(pyridin-2-yloxy)benzyl)amino)pyridazin-3-yl)phenol], 1.71 µM. In the case of `CN(Cc1ccc(F)c(F)c1)c1ccc(-c2cc(Cl)c(O)c(Cl)c2)nn1` [Compound 121, 2,6-dichloro-4-(6-((3,4-difluorobenzyl)(methyl)amino)pyridazin-3-yl)phenol] it was 0.23 µM; in that of `Oc1c(Cl)cc(-c2ccc(N3CCc4ccccc4C3)nn2)cc1Cl` [Compound 122, 2,6-dichloro-4-(6-(3,4-dihydroisoquinolin-2(1H)-yl)pyridazin-3-yl)phenol], 0.15 µM; in that of `OCCN(Cc1cccc(Cl)c1Cl)c1ccc(-c2cc(Cl)c(O)c(Cl)c2)nn1` [Compound 123, 2,6-dichloro-4-(6-((2,3-dichlorobenzyl)(2-hydroxyethyl)amino)pyridazin-3-yl)phenol], 1.41 µM. Take `CN(Cc1cccnc1)c1ccc(-c2cc(Cl)c(O)c(Cl)c2)nn1` [Compound 124, 2,6-dichloro-4-(6-(methyl(pyridin-3-ylmethyl)amino)pyridazin-3-yl)phenol]: the IC50 was 1.65 µM.

For the molecule `CN(Cc1ccc(-c2ccncc2)cc1)c1ccc(-c2cc(Cl)c(O)c(Cl)c2)nn1` [Compound 125, 2,6-dichloro-4-(6-(methyl(4-(pyridin-4-yl)benzyl)amino)pyridazin-3-yl)phenol], the IC50 came to 2.05 µM.

The record behind these values is patent US20090270398A1, “Compounds, Compositions and Methods Comprising Pyridazine Derivatives” (Institute for OneWorld Health, priority 2008, published 2009).
